Experimental data as given in patent US5276048A, “4-(1H-pyrrol-1-yl)imidazoles with angiotensin II antagonist activity” (Warner-Lambert Company, priority 1992, dated 1994).

Tested on: renal hypertensive rats (2-kidney, 1-clip Goldblatt model)
Experiment: blood pressure lowering in renal hypertensive rats (2-kidney, 1-clip Goldblatt model)
Type: in vivo, rat
Details: single oral dose of 30 mg/kg
Description: Finally, the compounds of Formula I were tested in vivo for blood pressure lowering effects in renal hypertensive rats (2-kidney, 1-clip Goldblatt model) according to the method described by S. Sen, et al, in Hypertension 1:427-434 (1979) and in Clin. Soc. 57:53-6, 1979.
Illustrative of the in vivo antihypertensive activity for compounds of Formula I is the data for 4-[2-(1-oxo-2,2,2-trifluoroethyl)-1H-pyrrol-1-yl]-2-propyl-1-[(2'-(1H-tetrazol-5-yl)biphen-4-yl)methyl]-1H-imidazole-5-carboxylic acid (Example 14). This compound lowers blood pressure by ≥50 mm Hg and is efficacious for more than 24 hours with a single oral dose of 30 mg/kg in the above rodent model.

CCCc1nc(-n2cccc2C(=O)C(F)(F)F)c(C(=O)O)n1Cc1ccc(-c2ccccc2-c2nnn[nH]2)cc1 [Example 14, 4-[2-(1-Oxo-2,2,2-trifluoroethyl)-1H-pyrrol-1-yl]-2-propyl-1-[(2'-(1H-tetrazol-5-yl)biphen-4-yl)methyl]-1H-imidazole-5-carboxylic acid]
duration of efficacy: more than 24 hours
lowers blood pressure: ≥ 50 mm Hg
